Here are results for 9 molecules from ChEMBL document CHEMBL1142159, “Aph(3')-IIc, an aminoglycoside resistance determinant from Stenotrophomonas maltophilia” (2007).

For experiment [1], the system named is Escherichia coli. In words: Antimicrobial activity against recombinant Escherichia coli DH5alpha expressing pBAD. The format is functional.
Experiment [2] has as its system Stenotrophomonas maltophilia. In words: Antimicrobial activity against Stenotrophomonas maltophilia K279a (aph FS) mutant. It is filed as functional.
Experiment [3] relates to Escherichia coli. Description: Antimicrobial activity against recombinant Escherichia coli DHalpha expressing pBAD [aph(3')-2]. The note with it: DH5alpha. The format is functional.
For experiment [4], the system named is Escherichia coli. Description: Antimicrobial activity against recombinant Escherichia coli DH5-alpha expressing pBAD [aph(3')-2] in the presence of arabinose. The note with it: DH5alpha. It is filed as functional.
Experiment [5] deals with Escherichia coli. Description: Antimicrobial activity against recombinant Escherichia coli DH5-alpha expressing pBAD in the presence of arabinose. The note with it: DH5alpha. The format is functional.
Experiment [6] concerns Stenotrophomonas maltophilia. In words: Antimicrobial activity against Stenotrophomonas maltophilia K279a mutant. It is filed as functional.
Experiment [7] relates to Escherichia coli. The note with it: DH5alpha.
Experiment [8] concerns Escherichia coli. Particulars: DH5alpha. The source holds these as a separate data set.
Experiment [9] deals with Escherichia coli. The note with it: DH5alpha. This is another data set of the same source.
Experiment [10] relates to Escherichia coli. The note with it: DH5alpha. This is another data set of the same source.

Values after ≈ are worked out from the molar mass of the structure shown.

Turning to `NC[C@@H]1O[C@H](O[C@H]2[C@@H](O)[C@H](O[C@@H]3[C@@H](O)[C@H](N)C[C@H](N)[C@H]3O[C@H]3O[C@H](CO)[C@@H](O)C[C@H]3N)O[C@@H]2CO)[C@H](N)[C@@H](O)[C@@H]1O[C@H]1O[C@H](CO)[C@@H](O)[C@H](O)[C@@H]1O` [LIVIDOMYCIN], the MIC (usually the lowest concentration that inhibits growth of the organism) in [1] was determined as 4 µg/mL; in experiment [2], 128 µg/mL (≈ 168 µM); in experiment [3], 4 µg/mL; in experiment [4] it was 8 µg/mL; in [5] it was 4 µg/mL; in experiment [6] it was 128 µg/mL (≈ 168 µM).

For the molecule `NC[C@@H]1O[C@H](O[C@H]2[C@@H](O)[C@H](O[C@@H]3[C@@H](O)[C@H](N)C[C@H](N)[C@H]3O[C@H]3O[C@H](CO)[C@@H](O)[C@H](O)[C@H]3N)O[C@@H]2CO)[C@H](N)[C@@H](O)[C@@H]1O` [PAROMOMYCIN], the MIC in experiment [1] worked out at 0.25 µg/mL; in experiment [2], 64 µg/mL (≈ 104 µM); in experiment [3], 0.25 µg/mL; in experiment [4], 128 µg/mL; in [5], 0.25 µg/mL; in [6] it was 256 µg/mL (≈ 416 µM).

Consider `NC[C@H]1O[C@H](O[C@H]2[C@H](O)[C@@H](O[C@H]3O[C@H](CO)[C@@H](O)[C@H](N)[C@H]3O)[C@H](N)C[C@@H]2N)[C@H](N)C[C@@H]1O` [TOBRAMYCIN], for which the MIC in [1] is 0.5 µg/mL; in experiment [2], 32 µg/mL (≈ 68.4 µM); in experiment [3] it was 0.5 µg/mL; in [4], 8 µg/mL; in [5], 0.5 µg/mL; in experiment [6], 32 µg/mL (≈ 68.4 µM).

Regarding `CN[C@@H]1[C@@H](O)[C@@H](O[C@@H]2[C@@H](O)[C@H](O[C@H]3OC(CN)=CC[C@H]3N)[C@@H](N)C[C@H]2N)OC[C@]1(C)O` [SISOMICIN], the minimum inhibitory concentration (MIC) in experiment [1] came out at 0.125 µg/mL; in [2] it was 8 µg/mL (≈ 17.9 µM); in experiment [3], 0.125 µg/mL; in [4], 0.125 µg/mL; in experiment [5], 0.125 µg/mL; in [6] it was 8 µg/mL (≈ 17.9 µM).

As to butirosin, the MIC was found to be 0.125 µg/mL in experiment [7]; 0.125 µg/mL in experiment [8]; 0.125 µg/mL in experiment [9]; 1 µg/mL in experiment [2]; 4 µg/mL in experiment [10]; 8 µg/mL in [6].

GENTAMICIN: the MIC was 1 µg/mL in experiment [7]; 1 µg/mL in experiment [8]; 1 µg/mL in [9]; 16 µg/mL in [2]; 1 µg/mL in [10]; 16 µg/mL in experiment [6].

`NCC[C@H](O)C(=O)N[C@@H]1C[C@H](N)[C@@H](O[C@H]2O[C@H](CN)[C@@H](O)[C@H](O)[C@H]2O)[C@H](O)[C@H]1O[C@H]1O[C@H](CO)[C@@H](O)[C@H](N)[C@H]1O` [AMIKACIN]: the minimal inhibitory concentration (MIC) came out at 0.5 µg/mL in experiment [1]; 64 µg/mL (≈ 109 µM) in experiment [2]; 0.5 µg/mL in [3]; 4 µg/mL in experiment [4]; 0.5 µg/mL in experiment [5]; 64 µg/mL (≈ 109 µM) in experiment [6].

`NC[C@H]1O[C@H](O[C@H]2[C@H](O)[C@@H](O[C@H]3O[C@H](CO)[C@@H](O)[C@H](N)[C@H]3O)[C@H](N)C[C@@H]2N)[C@H](O)[C@@H](O)[C@@H]1O` [KANAMYCIN]: the MIC in experiment [2] amounted to 8 µg/mL (≈ 16.5 µM); in [6], 256 µg/mL (≈ 528 µM).

On to `NC[C@@H]1O[C@H](O[C@H]2[C@@H](O)[C@H](O[C@@H]3[C@@H](O)[C@H](N)C[C@H](N)[C@H]3O[C@H]3O[C@H](CN)[C@@H](O)[C@H](O)[C@H]3N)O[C@@H]2CO)[C@H](N)[C@@H](O)[C@@H]1O` [FRAMYCETIN], for which the minimum inhibitory concentration (MIC) in experiment [1] is 0.5 µg/mL; in experiment [2], 64 µg/mL (≈ 104 µM); in experiment [3], 0.5 µg/mL; in experiment [4], 64 µg/mL; in experiment [5] it was 0.5 µg/mL; in experiment [6], 512 µg/mL (≈ 833 µM).
